Literature values as cited in US20250325549A1, “ORAL TABLET COMPOSITION OF RUXOLITINIB AND METHOD FOR PREPARING SAME” (SAMYANG HOLDINGS CORPORATION, priority 2021, published 2025).

Details: Shi et al., J. Clin. Pharmacol. 2012

For N#CC[C@H](C1CCCC1)n1cc(-c2ncnc3[nH]ccc23)cn1 [Ruxolitinib, (3R)-3-cyclopentyl-3-[4-(7H-pyrrolo[2,3-d]pyrimidin-4-yl)pyrazol-1-yl]propanenitrile], which half-life is on record?
The half-life was “approximately 3 hours”.
